The term IC50 denotes the concentration that gives 50% inhibition.

The assay has as its target T1, mGlyT-1b (Mus musculus, UniProt P28571).
T1 construct: host or cells: Flp-in-CHO
T1 sequence (P28571 1-651 isoform P28571-2): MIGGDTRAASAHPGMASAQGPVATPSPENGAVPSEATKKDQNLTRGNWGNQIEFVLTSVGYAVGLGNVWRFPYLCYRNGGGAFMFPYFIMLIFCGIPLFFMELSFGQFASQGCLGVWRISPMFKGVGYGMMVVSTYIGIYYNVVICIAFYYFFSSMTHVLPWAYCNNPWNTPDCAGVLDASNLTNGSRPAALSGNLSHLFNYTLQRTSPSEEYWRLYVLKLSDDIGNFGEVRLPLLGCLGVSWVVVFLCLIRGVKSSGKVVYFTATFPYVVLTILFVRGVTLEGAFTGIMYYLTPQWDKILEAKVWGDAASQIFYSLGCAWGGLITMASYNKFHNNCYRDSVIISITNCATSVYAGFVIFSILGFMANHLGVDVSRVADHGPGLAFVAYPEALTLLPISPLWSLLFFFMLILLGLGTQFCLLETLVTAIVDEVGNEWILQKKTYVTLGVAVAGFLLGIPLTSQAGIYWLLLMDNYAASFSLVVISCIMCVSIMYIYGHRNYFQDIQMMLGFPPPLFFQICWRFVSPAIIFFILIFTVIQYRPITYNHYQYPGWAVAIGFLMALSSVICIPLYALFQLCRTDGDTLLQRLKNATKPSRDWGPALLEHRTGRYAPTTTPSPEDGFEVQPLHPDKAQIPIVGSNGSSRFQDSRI
Kind of assay: Glycine Uptake Inhibition Assay (mGlyT-1b). In kind it is cell-based. Here is the method: DMEM complete medium: Nutrient mixture F-12 (Gibco Life-technologies), fetal bovine serum (FBS) 5%, (Gibco life technologies), Penicillin/Streptomycin 1% (Gibco life technologies), Hygromycin 0.6 mg/ml (Gibco life technologies), Glutamine 1 mM Gibco life technologies)
Uptake buffer (UB): 150 mM NaCl, 10 mM Hepes-Tris, pH 7.4, 1 mM CaCl2, 2.5 mM KCl, 2.5 mM MgSO4, 10 mM (+) D-glucose.
Flp-in™-CHO (Invitrogen Cat n° R758-07) cells stably transfected with mGlyT1b cDNA.
Glycine Uptake Inhibition Assay (mGlyT-1b)
On day 1 mammalian cells, (Flp-in™-CHO), transfected with mGlyT-1b cDNA, were plated at the density of 40,000 cells/well in complete F-12 medium, without hygromycin in 96-well culture plates. On day 2, the medium was aspirated and the cells were washed twice with uptake buffer (UB). The cells were then incubated for 20 min at 22° C. with either (i) no potential competitor, (ii) 10 mM non-radioactive glycine, (iii) a concentration of a potential inhibitor. A range of concentrations of the potential inhibitor was used to generate data for calculating the concentration of inhibitor resulting in 50% of the effect (e.g. IC50, the concentration of the competitor inhibiting glycine uptake of 50%). A solution was then immediately added containing [^3H]-glycine 60 nM (11-16 Ci/mmol) and 25 μM non-radioactive glycine. The plates were incubated with gentle shaking and the reaction was stopped by aspiration of the mixture and washing (three times) with ice-cold UB. The cells were lysed with scintillation liquid, shaken 3 hours and the radioactivity in the cells was counted using a scintillation counter.
For `O=C(CN(Cc1c(F)cccc1F)C(=O)c1ccc(F)cc1)Nc1ccc(F)c(Cl)c1` [Example 78, N-[(3-Chloro-4-fluoro-phenylcarbamoyl)-methyl]-N-(2,6-difluoro-benzyl)-4-fluoro-benzamide], the IC50 came out at 282 nM.

Consider `Cc1cccc(CN(CC(=O)Nc2cccc(Cl)c2)C(=O)c2ccc(Cl)cc2)c1` [Example 103, 4-Chloro-N-[(3-chloro-phenylcarbamoyl)-methyl]-N-(3-methyl-benzyl)-benzamide], for which inhibition was half-maximal at 142 nM (IC50). Against the preceding compound, the IC50 is about 2-fold lower.

Consider `COc1ccc(C(=O)N(CC(=O)Nc2cccc(Cl)c2)Cc2cccc(Cl)c2)cc1` [Example 14, N-(3-Chloro-benzyl)-N-[(3-chloro-phenylcarbamoyl)-methyl]-4-methoxy-benzamide], for which the IC50 worked out at 24 nM.

`COc1ccc(C(=O)N(CC(=O)Nc2ccc(Cl)c(Cl)c2)c2ccccc2F)cc1` [Example 21, N-[(3,4-Dichloro-phenylcarbamoyl)-methyl]-N-(2-fluoro-phenyl)-4-methoxy-benzamide]: the IC50 is 315 nM.

The compound `O=C(CN(Cc1cccc(F)c1)C(=O)c1ccc(Cl)cc1)Nc1cccc(Cl)c1` [Example 8, 4-Chloro-N-[(3-chloro-phenylcarbamoyl)-methyl]-N-(3-fluoro-benzyl)-benzamide] had an IC50 of 128 nM.

As to `O=C(CN(Cc1cc(F)cc(F)c1)C(=O)c1ccc(OC(F)(F)F)cc1)Nc1ccc(F)c(Cl)c1` [Example 90, N-[(3-Chloro-4-fluoro-phenylcarbamoyl)-methyl]-N-(3,5-difluoro-benzyl)-4-trifluoromethoxy-benzamide], inhibition was half-maximal at 288 nM (IC50).

In the case of `COc1ccc(C(=O)N(CC(=O)Nc2cccc(Cl)c2)Cc2c(F)cccc2F)cc1` [Example 11, N-[(3-Chloro-phenylcarbamoyl)-methyl]-N-(2,6-difluoro-benzyl)-4-methoxy-benzamide], the IC50 is 100 nM.

For the compound `O=C(CN(Cc1ccccc1F)C(=O)c1ccc(Cl)cc1)Nc1cccc(Cl)c1` [Example 9, 4-Chloro-N-[(3-chloro-phenylcarbamoyl)-methyl]-N-(2-fluoro-benzyl)-benzamide], the IC50 amounted to 74 nM.

`O=C(CN(C(=O)c1ccc(C(F)(F)F)nc1)c1ccccc1)Nc1ccc(Cl)c(Cl)c1` [Example 37, N-[(3,4-Dichloro-phenylcarbamoyl)-methyl]-N-phenyl-6-trifluoromethyl-nicotinamide] registered an IC50 of 154 nM.

`O=C(CN(Cc1ccccc1F)C(=O)c1ccc(Cl)nc1)Nc1cccc(Cl)c1` [Example 120, 6-Chloro-N-[(3-chloro-phenylcarbamoyl)-methyl]-N-(2-fluoro-benzyl)-nicotinamide] yielded an IC50 of 182 nM. This IC50 and that of the compound before are within 1.5-fold of each other.

The compound `N#Cc1ccc(C(=O)N(CC(=O)Nc2cccc(F)c2)Cc2ccccc2Cl)cc1` [Example 62, N-(2-Chloro-benzyl)-4-cyano-N-[(3-fluoro-phenylcarbamoyl)-methyl]-benzamide] showed an IC50 of 357 nM.

`O=C(CN(Cc1ccccc1)C(=O)c1ccc(Cl)cc1)Nc1cccc(Cl)c1` [Example 16, N-Benzyl-4-chloro-N-[(3-chloro-phenylcarbamoyl)-methyl]-benzamide] registered an IC50 of 156 nM.

The compound `O=C(CN(Cc1ccccc1Cl)C(=O)c1cc2ccccc2s1)Nc1cccc(F)c1` [Example 57, Benzo[b]thiophene-2-carboxylic acid (2-chloro-benzyl)-[(3-fluoro-phenylcarbamoyl)-methyl]-amide] registered an IC50 of 88 nM.

Take `O=C(CN(C(=O)COc1ccc(Cl)cc1)c1ccccc1)Nc1ccc(Cl)c(Cl)c1` [Example 118, 2-(4-Chloro-phenoxy)-N-[(3,4-dichloro-phenylcarbamoyl)-methyl]-N-phenyl-acetamide]: the 50% inhibitory concentration (IC50) is 259 nM.

As to `O=C(CN(Cc1ccc(F)c(F)c1)C(=O)c1ccc(Cl)cc1)Nc1cccc(Cl)c1` [Example 2, 4-Chloro-N-[(3-chloro-phenylcarbamoyl)-methyl]-N-(3,4-difluoro-benzyl)-benzamide], the IC50 was found to be 265 nM.

Compound `COc1ccc(C(=O)N(CC(=O)Nc2ccc(Cl)c(Cl)c2)c2ccccc2)cc1` [Example 41, N-[(3,4-Dichloro-phenylcarbamoyl)-methyl]-4-methoxy-N-phenyl-benzamide] displayed an IC50 of 276 nM.

For the compound `O=C(CN(Cc1c(F)cccc1F)C(=O)c1cc2ccccc2s1)Nc1ccc(F)c(Cl)c1` [Example 69, Benzo[b]thiophene-2-carboxylic acid [(3-chloro-4-fluoro-phenylcarbamoyl)-methyl]-(2,6-difluoro-benzyl)-amide], the IC50 came to 90 nM.

In the case of `O=C(CN(Cc1ccccc1F)C(=O)c1ccc(N2CCOCC2)nc1)Nc1cccc(Cl)c1` [Example 119, N-[(3-Chloro-phenylcarbamoyl)-methyl]-N-(2-fluoro-benzyl)-6-morpholin-4-yl-nicotinamide], inhibition was half-maximal at 355 nM (IC50). Compared with the last compound, the IC50 is about 3.9-fold higher.

Compound `COc1ccccc1CN(CC(=O)Nc1cccc(Cl)c1)C(=O)c1ccc(Cl)cc1` [Example 102, 4-Chloro-N-[(3-chloro-phenylcarbamoyl)-methyl]-N-(2-methoxy-benzyl)-benzamide] gave a half-maximal inhibitory concentration (IC50) of 60 nM.

As for `N#Cc1cccc(CN(CC(=O)Nc2cccc(Cl)c2)C(=O)c2ccc(Cl)cc2)c1` [Example 100, 4-Chloro-N-[(3-chloro-phenylcarbamoyl)-methyl]-N-(3-cyano-benzyl)-benzamide], the IC50 stood at 192 nM.

`COc1ccc(C(=O)N(CC(=O)Nc2ccc(C)c(Cl)c2)c2ccccc2)cc1` [Example 110, N-[(3-Chloro-4-methyl-phenylcarbamoyl)-methyl]-4-methoxy-N-phenyl-benzamide] came in with an IC50 of 369 nM.

Compound `O=C(CN(Cc1cccc(F)c1F)C(=O)c1ccc(Cl)cc1)Nc1ccc(F)c(Cl)c1` [Example 82, 4-Chloro-N-[(3-chloro-4-fluoro-phenylcarbamoyl)-methyl]-N-(2,3-difluoro-benzyl)-benzamide] displayed an IC50 of 108 nM. This IC50 is about 3.4-fold lower than that of the compound before.

`O=C(CN(Cc1ccccc1Cl)C(=O)c1ccc(OC(F)(F)F)cc1)Nc1cccc(C(F)(F)F)c1` [Example 54, #N!-(2-Chloro-benzyl)-4-trifluoromethoxy-#N!-[(3-trifluoromethyl-phenylcarbamoyl)-methyl]-benzamide] displayed an IC50 of 196 nM.

As for `CC(C)(C)CCN(CC(=O)Nc1cccc(Cl)c1)C(=O)c1ccc(Cl)cc1` [Example 96, 4-Chloro-N-[(3-chloro-phenylcarbamoyl)-methyl]-N-(3,3-dimethyl-butyl)-benzamide], the concentration for half-maximal inhibition (IC50) worked out at 359 nM.

`O=C(CN(Cc1cc(F)ccc1F)C(=O)c1ccc(Cl)cc1)Nc1cccc(Cl)c1` [Example 6, 4-Chloro-N-[(3-chloro-phenylcarbamoyl)-methyl]-N-(2,5-difluoro-benzyl)-benzamide] displayed an IC50 of 165 nM. Against the preceding compound, the IC50 is about 2.2-fold lower.

Regarding `CN(C)c1ccc(C(=O)N(CC(=O)Nc2ccc(Cl)c(Cl)c2)c2ccccc2)cc1` [Example 116, N-[(3,4-Dichloro-phenylcarbamoyl)-methyl]-4-dimethylamino-N-phenyl-benzamide], the IC50 amounted to 191 nM.

On to `O=C(CN(Cc1ccccc1Cl)C(=O)c1ccc(OC(F)(F)F)cc1)Nc1ccc(F)c(Cl)c1` [Example 75, N-(2-Chloro-benzyl)-N-[(3-chloro-4-fluoro-phenylcarbamoyl)-methyl]-4-trifluoromethoxy-benzamide], for which 259 nM corresponded to half-maximal inhibition (IC50).

In the case of `O=C(CN(Cc1ccc(F)cc1F)C(=O)c1ccc(Cl)cc1)Nc1cccc(Cl)c1` [Example 5, 4-Chloro-N-[(3-chloro-phenylcarbamoyl)-methyl]-N-(2,4-difluoro-benzyl)-benzamide], the IC50 is 160 nM.

As to `O=C(CN(Cc1cccc(Cl)c1)C(=O)c1ccc(Cl)cc1)Nc1cccc(Cl)c1` [Example 105, 4-Chloro-N-(3-chloro-benzyl)-N-[(3-chloro-phenylcarbamoyl)-methyl]-benzamide], the IC50 was 21 nM.

`COc1ccc(C(=O)N(CC(=O)Nc2ccc(Cl)c(Cl)c2)C2CCCC2)cc1` [Example 126, N-Cyclopentyl-N-[(3,4-dichloro-phenylcarbamoyl)-methyl]-4-methoxy-benzamide] showed an IC50 of 357 nM.

In turn, `O=C(CN(Cc1ccccc1Cl)C(=O)c1ccc(Cl)cc1)Nc1ccc(F)c(Cl)c1` [Example 74, 4-Chloro-N-(2-chloro-benzyl)-N-[(3-chloro-4-fluoro-phenylcarbamoyl)-methyl]-benzamide] yielded an IC50 of 142 nM.
